Target: Mitogen-activated protein kinase 1 (Mus musculus, UniProt P63085)
Assay: TdF (Temperature Dependence Fluorescence) Assay: The SAR (Structure Activity Relationship) for ERK ligands covered by this invention was interrogated using the TdF (Temperature Dependence Fluorescence) assay or best known as thermal shift assay. (M. W. Pantoliano, et al., "High-density miniaturized thermal shift assays as a general strategy for drug discovery," J. Biomol. Screen 6 (2001) 429-440) The TdF assay was mainly conducted in the 96-well based CHROMO-4 real time fluorescence plate reader (BioRad). The Sypro Orange (Sigma-Aldrich), environmentally sensitive fluorescence dye, was used to monitor the protein folding-unfolding transition. Protein-ligand binding was gauged by the change (or shift) in the unfolding transition temperature (ΔTm) acquired at protein alone with respect to protein in the presence of ligand of interest.Compound of interest was first prepared in DMSO stock (typical concentration: 10 mM). […] Final percentage of DMSO resided in the sample was 2%. The sample plate was heated from 30° C. to 90° C. with thermal ramping rate of 1° C./min.

Sequence of Mitogen-activated protein kinase 1 (P63085 whole entry): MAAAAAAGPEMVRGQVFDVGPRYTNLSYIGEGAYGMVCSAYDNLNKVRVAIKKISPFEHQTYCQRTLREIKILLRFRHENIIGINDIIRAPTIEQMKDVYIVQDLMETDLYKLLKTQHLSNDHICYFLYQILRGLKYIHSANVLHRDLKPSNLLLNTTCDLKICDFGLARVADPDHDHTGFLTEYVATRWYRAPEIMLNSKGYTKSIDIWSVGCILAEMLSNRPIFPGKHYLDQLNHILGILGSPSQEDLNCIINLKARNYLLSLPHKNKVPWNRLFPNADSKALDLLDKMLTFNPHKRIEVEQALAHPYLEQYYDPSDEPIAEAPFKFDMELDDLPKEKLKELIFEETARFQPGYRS

A Kd of 6 nM was found for `O=C(N[C@H]1CNC[C@@H]1c1ccccc1)N1CCc2[nH]nc(-c3ccncc3)c2C1` (racemic) in this work.

— ChEMBL document CHEMBL3886489, “Fused pyrazole derivatives as novel ERK inhibitors” (2016)
